Calls of active or inactive are those of the source.
Key:
[1] = Trypanosoma cruzi growth suppression in host cells – NIH3T3 host cells, beta-gal luminescence, confirmation (AID 2044); type: functional, cell-based;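 note: intracellular parasites grown in NIH/3T3 mouse fibroblasts as host cells; luminescent beta-galactosidase reporter signal from transgenic T. cruzi replicating inside host cells; inhibitors lower the luminescence signal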
[2] = NIH3T3 cell viability loss – ATP luminescence, mouse fibroblasts, counter-screen, dose response (AID 2010); type: functional, cell-based;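 note: cells exposed to compound for about 90 hours before reading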
[3] = target: T1, Heat shock factor protein 1 (Mus musculus, UniProt P38532); experiment: enhancement of HSF1-driven luciferase signal – cell-based, NIH3T3, luminescence, dose retest, confirmation (AID 435004); type: functional;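 note: stress induced by proteasome inhibitor MG132 added 30 min after compound; luciferase reporter driven by HSF1 response element in NIH3T3 cells; actives raise luminescence as potentiators of the MG132 stress response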
T1 sequence (P38532 whole entry): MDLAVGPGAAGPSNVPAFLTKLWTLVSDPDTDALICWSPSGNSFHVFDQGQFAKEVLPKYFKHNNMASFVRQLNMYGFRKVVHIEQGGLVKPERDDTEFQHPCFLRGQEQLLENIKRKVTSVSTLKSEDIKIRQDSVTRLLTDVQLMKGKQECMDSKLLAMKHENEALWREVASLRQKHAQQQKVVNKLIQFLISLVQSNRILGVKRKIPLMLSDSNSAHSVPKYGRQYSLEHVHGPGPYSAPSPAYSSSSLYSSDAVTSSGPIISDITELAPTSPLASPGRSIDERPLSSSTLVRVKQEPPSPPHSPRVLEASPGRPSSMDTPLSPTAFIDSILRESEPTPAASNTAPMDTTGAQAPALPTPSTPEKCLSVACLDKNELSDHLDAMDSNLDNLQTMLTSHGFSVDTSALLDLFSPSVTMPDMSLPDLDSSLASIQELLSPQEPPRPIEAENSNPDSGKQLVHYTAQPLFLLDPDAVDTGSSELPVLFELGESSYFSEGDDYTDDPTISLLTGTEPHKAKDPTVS

[4] = target: T2, Replicative DNA helicase DnaB (Mycobacterium tuberculosis, UniProt P9WMR3); experiment: DnaB intein splicing inhibitors, dose response, biochemical, cell-free fluorescence (AID 449749); type: functional
T2 sequence (P9WMR3 whole entry): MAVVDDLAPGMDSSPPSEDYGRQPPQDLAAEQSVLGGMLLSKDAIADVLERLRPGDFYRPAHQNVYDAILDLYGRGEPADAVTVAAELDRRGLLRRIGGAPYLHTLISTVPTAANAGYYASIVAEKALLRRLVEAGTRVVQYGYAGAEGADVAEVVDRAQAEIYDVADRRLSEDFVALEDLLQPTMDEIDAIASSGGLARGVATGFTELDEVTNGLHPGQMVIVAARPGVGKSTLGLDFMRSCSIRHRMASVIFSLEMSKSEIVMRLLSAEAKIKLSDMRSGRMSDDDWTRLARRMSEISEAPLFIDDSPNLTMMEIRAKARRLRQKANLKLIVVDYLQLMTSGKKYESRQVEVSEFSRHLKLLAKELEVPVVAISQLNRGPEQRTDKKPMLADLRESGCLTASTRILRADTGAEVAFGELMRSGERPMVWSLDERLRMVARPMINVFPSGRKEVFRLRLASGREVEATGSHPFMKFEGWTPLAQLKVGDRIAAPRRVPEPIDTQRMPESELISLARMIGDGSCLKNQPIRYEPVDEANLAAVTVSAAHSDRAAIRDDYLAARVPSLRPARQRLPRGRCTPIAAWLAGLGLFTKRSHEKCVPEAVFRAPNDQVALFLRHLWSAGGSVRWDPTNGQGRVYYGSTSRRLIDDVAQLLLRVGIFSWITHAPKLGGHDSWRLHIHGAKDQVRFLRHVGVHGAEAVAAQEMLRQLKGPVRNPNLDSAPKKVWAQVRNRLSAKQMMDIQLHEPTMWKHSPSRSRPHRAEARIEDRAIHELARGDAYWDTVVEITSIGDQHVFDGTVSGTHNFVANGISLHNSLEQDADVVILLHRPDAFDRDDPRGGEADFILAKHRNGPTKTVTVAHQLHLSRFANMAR

[5] = target: T3, Protein RecA (Mycobacterium tuberculosis, UniProt P9WHJ3); experiment: Fluorescence Cell-Free Homogeneous Dose Retest to Identify Inhibitors of RecA-Intein Splicing Activity. [Related pubchem assays (depositor defined):AID2097, AID2223, AID489010, AID492950]; type: functional
T3 sequence (P9WHJ3 whole entry): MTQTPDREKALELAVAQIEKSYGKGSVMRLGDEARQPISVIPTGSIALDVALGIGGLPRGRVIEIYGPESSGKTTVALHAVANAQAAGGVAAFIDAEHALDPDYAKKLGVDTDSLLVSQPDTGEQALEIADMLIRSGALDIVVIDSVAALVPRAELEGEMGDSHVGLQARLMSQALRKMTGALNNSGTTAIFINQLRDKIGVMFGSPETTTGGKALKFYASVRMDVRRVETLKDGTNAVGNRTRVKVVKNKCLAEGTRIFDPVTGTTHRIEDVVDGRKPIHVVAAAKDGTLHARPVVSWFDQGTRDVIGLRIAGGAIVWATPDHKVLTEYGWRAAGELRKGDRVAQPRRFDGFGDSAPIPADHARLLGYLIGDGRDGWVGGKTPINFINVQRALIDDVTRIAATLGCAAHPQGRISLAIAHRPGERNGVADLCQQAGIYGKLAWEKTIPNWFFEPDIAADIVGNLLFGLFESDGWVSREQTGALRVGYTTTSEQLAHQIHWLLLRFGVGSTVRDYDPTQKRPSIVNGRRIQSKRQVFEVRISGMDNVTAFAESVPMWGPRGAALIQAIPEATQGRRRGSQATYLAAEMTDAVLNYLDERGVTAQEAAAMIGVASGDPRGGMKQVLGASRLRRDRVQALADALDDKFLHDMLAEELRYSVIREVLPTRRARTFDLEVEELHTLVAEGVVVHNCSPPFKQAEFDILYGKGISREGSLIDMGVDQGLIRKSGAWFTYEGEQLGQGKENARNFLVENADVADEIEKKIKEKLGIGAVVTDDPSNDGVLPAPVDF

[6] = target: T4, Melanocortin receptor 4 (Homo sapiens, UniProt P32245); experiment: inhibitors of MC4R cAMP signaling – cell-based, TR-FRET, biased antagonists, dose response (AID 602298); type: functional;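 note: antagonist potency against agonist-stimulated cAMP production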
T4 sequence (P32245 whole entry): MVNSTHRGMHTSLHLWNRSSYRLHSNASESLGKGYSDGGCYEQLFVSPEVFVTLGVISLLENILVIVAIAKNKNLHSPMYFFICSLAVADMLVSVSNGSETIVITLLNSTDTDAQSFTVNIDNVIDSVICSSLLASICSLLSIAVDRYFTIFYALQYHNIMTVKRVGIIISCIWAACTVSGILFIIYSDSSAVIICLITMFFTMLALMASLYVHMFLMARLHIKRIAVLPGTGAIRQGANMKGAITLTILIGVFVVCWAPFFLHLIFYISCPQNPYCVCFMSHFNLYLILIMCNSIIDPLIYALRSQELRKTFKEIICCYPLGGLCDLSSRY

[7] = cAMP pathway inhibition in counterscreen cell line – TR-FRET cAMP detection, counter-screen for MC4R biased antagonist project, dose response (AID 602305); type: functional, cell-based;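 note: U2OS cells stimulated with forskolin near its EC80 as the cAMP inducer; potency is for inhibition of forskolin-stimulated cAMP signaling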
[8] = target: Protein Wnt-3a (Mus musculus, UniProt P27467); experiment: antagonism of Wnt3a pathway luciferase reporter – Wnt-LIGHT cells, luminescence, selectivity assay for Gli-SUFU antagonist project, dose response (AID 651570); type: functional; conditions: read-out: IC50_Mean;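 note: Wnt-LIGHT reporter cells stimulated with conditioned medium from Wnt3a-producing cells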
Protein Wnt-3a, sequence (P27467 whole entry): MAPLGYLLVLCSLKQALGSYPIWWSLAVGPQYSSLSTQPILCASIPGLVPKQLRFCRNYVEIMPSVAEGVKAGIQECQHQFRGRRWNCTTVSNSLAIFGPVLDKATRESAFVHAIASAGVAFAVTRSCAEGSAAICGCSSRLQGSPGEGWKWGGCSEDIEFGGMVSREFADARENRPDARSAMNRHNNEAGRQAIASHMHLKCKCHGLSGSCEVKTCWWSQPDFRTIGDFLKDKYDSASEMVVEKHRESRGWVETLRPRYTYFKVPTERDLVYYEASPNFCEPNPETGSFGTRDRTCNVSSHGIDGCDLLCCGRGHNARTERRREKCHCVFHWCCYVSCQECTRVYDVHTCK

[9] = bead-based luminescence quenchers, dual-tagged ARNT – biochemical, AlphaScreen, cherry-pick, artefact control for ARNT-TACC3 interaction inhibitor project, dose response (AID 651705); type: functional;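 note: AlphaScreen bead proximity signal that flags compounds interfering with the detection technology; potency reflects signal decrease which marks the compound as an assay artifact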
[10] = decrease of insulin promoter-GFP reporter – imaging, high-content screening, mouse beta cells (AID 1628); type: functional; conditions: MIN6
[11] = MIN6 cell viability loss – mouse insulinoma, cytotoxicity control, dose response (AID 2122); type: functional;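 note: confirmatory high-throughput counterscreen run to flag cytotoxic compounds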
[12] = target: T5, Polyadenylate-binding protein 1 (Homo sapiens, UniProt P11940); experiment: MLLE binding blockers, Cy5 peptide tracer – biochemical, fluorescence polarization, Cy5-PAM2 peptide, secondary, miRNA deadenylation inhibitor project, dose response (AID 602260); type: functional; conditions: read-out: IC50_Mean
T5 sequence (P11940 whole entry): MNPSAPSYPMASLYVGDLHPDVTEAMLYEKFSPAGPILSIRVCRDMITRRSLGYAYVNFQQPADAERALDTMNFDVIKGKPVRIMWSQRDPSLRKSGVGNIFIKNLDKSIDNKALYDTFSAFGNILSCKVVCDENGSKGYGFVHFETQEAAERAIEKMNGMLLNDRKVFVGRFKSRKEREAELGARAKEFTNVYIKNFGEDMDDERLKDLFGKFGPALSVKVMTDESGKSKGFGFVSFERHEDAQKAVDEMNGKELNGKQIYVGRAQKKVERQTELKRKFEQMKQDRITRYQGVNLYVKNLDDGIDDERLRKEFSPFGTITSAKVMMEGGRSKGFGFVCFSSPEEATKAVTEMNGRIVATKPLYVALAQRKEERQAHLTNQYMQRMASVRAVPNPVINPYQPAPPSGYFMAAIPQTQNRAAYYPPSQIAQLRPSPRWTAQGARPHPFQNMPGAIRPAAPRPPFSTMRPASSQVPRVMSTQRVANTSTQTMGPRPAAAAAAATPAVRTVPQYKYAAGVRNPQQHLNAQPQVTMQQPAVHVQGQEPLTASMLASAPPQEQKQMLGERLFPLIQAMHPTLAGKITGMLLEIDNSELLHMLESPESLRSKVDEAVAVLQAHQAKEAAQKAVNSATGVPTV

[13] = target: T4, Melanocortin receptor 4; type: functional, cell-based
[14] = target: T5, Polyadenylate-binding protein 1; experiment: MLLE domain peptide-binding blockers, IC50 – biochemical, fluorescence polarization, FITC-PAM2 peptide, dose response (AID 602259); type: functional; conditions: read-out: IC50_Mean
[15] = target: T6, Methionyl-tRNA synthetase, putative (Trypanosoma brucei brucei, UniProt Q38C91); type: functional, Trypanosoma brucei brucei strain 927/4 GUTat10.1
T6 sequence (Q38C91 whole entry): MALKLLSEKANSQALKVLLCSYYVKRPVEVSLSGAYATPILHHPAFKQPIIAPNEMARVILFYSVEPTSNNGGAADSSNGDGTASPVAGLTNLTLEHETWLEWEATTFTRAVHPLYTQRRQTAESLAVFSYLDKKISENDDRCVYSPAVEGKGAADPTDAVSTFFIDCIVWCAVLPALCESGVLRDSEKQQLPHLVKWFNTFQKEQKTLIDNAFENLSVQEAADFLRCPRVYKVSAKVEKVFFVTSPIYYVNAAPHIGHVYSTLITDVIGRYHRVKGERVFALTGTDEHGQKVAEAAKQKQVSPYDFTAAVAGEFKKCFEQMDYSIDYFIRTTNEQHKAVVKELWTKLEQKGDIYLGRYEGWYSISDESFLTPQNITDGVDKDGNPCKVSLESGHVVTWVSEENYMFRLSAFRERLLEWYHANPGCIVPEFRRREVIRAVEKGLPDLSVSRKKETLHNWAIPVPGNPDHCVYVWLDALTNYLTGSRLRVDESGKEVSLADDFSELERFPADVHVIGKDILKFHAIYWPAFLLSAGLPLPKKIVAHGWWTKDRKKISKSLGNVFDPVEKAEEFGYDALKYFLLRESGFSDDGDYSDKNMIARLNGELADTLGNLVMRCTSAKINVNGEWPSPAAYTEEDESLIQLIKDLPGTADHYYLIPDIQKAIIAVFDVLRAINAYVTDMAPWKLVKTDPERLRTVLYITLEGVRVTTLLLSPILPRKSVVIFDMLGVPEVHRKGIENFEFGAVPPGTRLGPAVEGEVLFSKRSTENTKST

[16] = Counterscreen for inhibitors of Trypanosoma brucei methionyl tRNA synthetase (MetRS): Luminescence-based cell-based high throughput dose response assay to identify compounds that are cytotoxic to Jurkat human T lymphocyte cells.; type: functional
[17] = target: T6, Methionyl-tRNA synthetase, putative; type: functional, Trypanosoma brucei brucei strain 927/4 GUTat10.1; remark: listed apart in the source
[18] = test system: HEK293; experiment: cells; conditions: Homo sapiens
[19] = test system: HEK293; experiment: cells; conditions: Homo sapiens; remark: listed apart in the source
[20] = target: T7, Apoptotic protease-activating factor 1 (Homo sapiens, UniProt O14727); experiment: SAR analysis of small molecule Activators of Apaf-1 in a Fluorescent assay.; type: functional; conditions: read-out: EC50_Mean;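 note: caspase-3 cleavage of fluorogenic Rh110 DEVD substrate downstream of apoptosome activation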
T7 sequence (O14727 whole entry): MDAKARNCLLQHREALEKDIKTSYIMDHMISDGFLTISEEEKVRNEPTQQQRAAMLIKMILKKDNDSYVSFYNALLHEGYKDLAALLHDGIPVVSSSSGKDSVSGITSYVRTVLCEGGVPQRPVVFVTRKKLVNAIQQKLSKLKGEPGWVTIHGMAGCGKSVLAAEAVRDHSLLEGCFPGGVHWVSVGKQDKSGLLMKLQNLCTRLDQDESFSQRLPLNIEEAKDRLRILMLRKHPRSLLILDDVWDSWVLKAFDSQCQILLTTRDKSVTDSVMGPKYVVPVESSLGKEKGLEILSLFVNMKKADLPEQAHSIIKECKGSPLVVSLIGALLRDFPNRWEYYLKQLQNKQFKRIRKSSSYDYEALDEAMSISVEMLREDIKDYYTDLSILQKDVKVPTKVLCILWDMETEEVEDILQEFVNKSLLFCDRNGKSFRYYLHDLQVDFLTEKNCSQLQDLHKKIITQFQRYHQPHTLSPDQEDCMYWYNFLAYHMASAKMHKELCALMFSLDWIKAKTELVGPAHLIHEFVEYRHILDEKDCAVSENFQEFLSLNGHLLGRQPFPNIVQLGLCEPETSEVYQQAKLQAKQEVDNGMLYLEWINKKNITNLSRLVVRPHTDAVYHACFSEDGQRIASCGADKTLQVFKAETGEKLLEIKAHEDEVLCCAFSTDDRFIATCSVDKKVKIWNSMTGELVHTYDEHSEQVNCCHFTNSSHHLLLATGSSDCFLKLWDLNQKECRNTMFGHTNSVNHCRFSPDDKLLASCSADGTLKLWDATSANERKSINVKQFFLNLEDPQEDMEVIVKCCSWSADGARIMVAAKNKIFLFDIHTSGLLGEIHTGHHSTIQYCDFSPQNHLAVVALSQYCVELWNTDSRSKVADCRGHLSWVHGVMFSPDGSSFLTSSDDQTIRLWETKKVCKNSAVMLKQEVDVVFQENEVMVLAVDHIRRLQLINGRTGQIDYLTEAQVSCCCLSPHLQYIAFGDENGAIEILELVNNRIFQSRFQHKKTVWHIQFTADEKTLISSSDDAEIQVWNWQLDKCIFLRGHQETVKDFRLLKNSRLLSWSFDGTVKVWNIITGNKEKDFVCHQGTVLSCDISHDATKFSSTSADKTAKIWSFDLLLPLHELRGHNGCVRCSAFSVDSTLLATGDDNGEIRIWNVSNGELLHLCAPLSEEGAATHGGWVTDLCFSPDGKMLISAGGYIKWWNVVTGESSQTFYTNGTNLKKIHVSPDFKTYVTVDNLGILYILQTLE

O=C(CCl)c1ccc2c(c1)CCN2C(=O)C1CCCCC1
EC50 [1]: 1.92 µM (active) | EC50 [2]: 6.6 µM (active) | EC50 [3]: 4.1 µM (inconclusive) | AC50 [4]: 42.4 µM (active) | EC50 [5]: 4.08 µM (active) | IC50 [6]: > 64.6 µM (inactive) | IC50 [7]: > 64.6 µM (inactive)

CC[N+](CC)(CC#Cc1ccccc1)CC#Cc1ccccc1
IC50 [8]: 35.2 µM (inactive)

CC1CC1C(=O)Nc1nc(-c2ccccn2)cs1 (centres undefined)
AC50 [9]: 82.6 µM (active)

CCOC(=O)CSc1nnc(-c2ccc(NS(=O)(=O)c3ccc(C)cc3)cc2)o1
IC50 [6]: > 64.6 µM (inactive) | IC50 [7]: > 64.6 µM (inactive)

C=CCNc1nc2c(c(=O)n(C)c(=O)n2C)n1Cc1ccc(F)cc1
IC50 [10]: 1.13 µM (active) | IC50 [11]: 0.892 µM (active) | IC50 [8]: 5.06 µM (active)

Cc1ccc(OCC(=O)NC(=S)Nc2cccc(NC(=O)c3ccccc3)c2)cc1
IC50 [12]: > 66 µM (inactive) | EC50 [13]: > 89.2 µM (inactive) | IC50 [14]: > 66 µM (inactive)

NC(Cc1ccc(Cl)cc1)c1csc(NC(=O)Nc2ccccc2)n1 (centres undefined)
EC50 [13]: > 89.2 µM (inactive) | IC50 [15]: 4.07 µM (active) | IC50 [16]: 13.7 µM (inactive) | IC50 [17]: 2.09 µM (active) | EC50 [18]: > 59.6 µM (inactive) | EC50 [19]: > 59.6 µM (inactive)

COc1ccc(C)cc1NC(=O)CCS(=O)(=O)c1ccc2c(c1)NC(=O)CS2
EC50 [20]: > 100 µM (inactive)
